Source: PubChem BioAssay (NCI)
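Values below derive from 48-hour exposures of cells grown in 96-well plates, with endpoints linearly interpolated between the two concentrations bracketing the appropriate inhibition level. TGI: total growth inhibition.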

Assays:
Assay in all cases: NCI tumour cell line growth inhibition, 48 h
[1] = tested on: SK-OV-3 ovarian
[2] = tested on: SNB-19 CNS
[3] = tested on: SF-539 CNS
[4] = tested on: XF 498 CNS
[5] = tested on: EKVX NSCLC
[6] = tested on: SR leukemia
[7] = tested on: 786-0 renal
[8] = tested on: KM20L2 colon
[9] = tested on: A498 renal
[10] = tested on: KM12 colon
[11] = tested on: HOP-92 NSCLC
[12] = tested on: OVCAR-4 ovarian
[13] = tested on: M19-MEL melanoma
[14] = tested on: SK-MEL-5 melanoma
[15] = tested on: SF-295 CNS
[16] = tested on: LOX IMVI melanoma
[17] = tested on: IGROV1 ovarian
[18] = tested on: MALME-3M melanoma
[19] = tested on: UACC-62 melanoma
[20] = tested on: OVCAR-5 ovarian
[21] = tested on: OVCAR-8 ovarian
[22] = tested on: HL-60(TB) leukemia
[23] = tested on: CAKI-1 renal
[24] = tested on: HOP-18 NSCLC
[25] = tested on: MOLT-4 leukemia
[26] = tested on: SNB-75 CNS
[27] = tested on: K-562 leukemia
[28] = tested on: DMS 114 small cell lung
[29] = tested on: ACHN renal
[30] = tested on: M14 melanoma
[31] = tested on: NCI-H522 lung
[32] = tested on: HCC-2998 colon
[33] = tested on: HT29 colon
[34] = tested on: U251 CNS
[35] = tested on: SW-620 colon
[36] = tested on: RXF-631 renal
[37] = tested on: CCRF-CEM leukemia
[38] = tested on: UACC-257 melanoma
[39] = tested on: A549 NSCLC
[40] = tested on: LXFL 529 NSCLC
[41] = tested on: SN12C renal
[42] = tested on: SNB-78 CNS
[43] = tested on: HCT-116 colon
[44] = tested on: DLD-1 colon
[45] = tested on: SK-MEL-28 melanoma
[46] = tested on: NCI-H226 lung
[47] = tested on: SK-MEL-2 melanoma
[48] = tested on: COLO 205 colon
[49] = tested on: SF-268 CNS
[50] = tested on: HOP-62 NSCLC
[51] = tested on: TK-10 renal
[52] = tested on: OVCAR-3 ovarian
[53] = tested on: RXF 393 renal
[54] = tested on: DMS 273 small cell lung
[55] = tested on: NCI-H23 lung
[56] = tested on: UO-31 renal
[57] = tested on: RPMI-8226 leukemia
[58] = tested on: HCT-15 colon
[59] = tested on: NCI-H460 lung

Measured: TGI

NC(=O)c1ncn2c1NCC1OC2C(O)C1O (centres undefined)
not listed: [57] | [58] | [59]
> 100 µM: all other assays above

O=C(O)C1(C(=O)O)CC1
not listed: [6] | [11] | [16] | [20] | [33] | [46]
> 100 µM: all other assays above
